Experimental data: patent US11123337B2, “4-methylsulfonyl-substituted piperidine urea compounds” (MYOKARDIA, INC., priority 2015, dated 2021)

molecular target: bovine cardiac myosin (Bos taurus, UniProt Q9BE39); test: Myosin activation assay (PK/LDH-coupled ATPase, bovine cardiac myofibrils); assay type: biochemical; conditions: AC20 = concentration at which total response is increased by twenty percent
How it was run: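 Values are the concentrations raising the ATPase rate by 20% or 50% over DMSO, from 10-point dose responses fitted with four parameters. Rate is NADH loss at 340 nm via PK/LDH coupling, read 15 min at room temperature, in pH 6.8 PIPES with 50 μM ATP. Bovine cardiac myofibrils were held at pCa ~6 or pCa 10.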

Sequence of bovine cardiac myosin (Q9BE39 whole entry): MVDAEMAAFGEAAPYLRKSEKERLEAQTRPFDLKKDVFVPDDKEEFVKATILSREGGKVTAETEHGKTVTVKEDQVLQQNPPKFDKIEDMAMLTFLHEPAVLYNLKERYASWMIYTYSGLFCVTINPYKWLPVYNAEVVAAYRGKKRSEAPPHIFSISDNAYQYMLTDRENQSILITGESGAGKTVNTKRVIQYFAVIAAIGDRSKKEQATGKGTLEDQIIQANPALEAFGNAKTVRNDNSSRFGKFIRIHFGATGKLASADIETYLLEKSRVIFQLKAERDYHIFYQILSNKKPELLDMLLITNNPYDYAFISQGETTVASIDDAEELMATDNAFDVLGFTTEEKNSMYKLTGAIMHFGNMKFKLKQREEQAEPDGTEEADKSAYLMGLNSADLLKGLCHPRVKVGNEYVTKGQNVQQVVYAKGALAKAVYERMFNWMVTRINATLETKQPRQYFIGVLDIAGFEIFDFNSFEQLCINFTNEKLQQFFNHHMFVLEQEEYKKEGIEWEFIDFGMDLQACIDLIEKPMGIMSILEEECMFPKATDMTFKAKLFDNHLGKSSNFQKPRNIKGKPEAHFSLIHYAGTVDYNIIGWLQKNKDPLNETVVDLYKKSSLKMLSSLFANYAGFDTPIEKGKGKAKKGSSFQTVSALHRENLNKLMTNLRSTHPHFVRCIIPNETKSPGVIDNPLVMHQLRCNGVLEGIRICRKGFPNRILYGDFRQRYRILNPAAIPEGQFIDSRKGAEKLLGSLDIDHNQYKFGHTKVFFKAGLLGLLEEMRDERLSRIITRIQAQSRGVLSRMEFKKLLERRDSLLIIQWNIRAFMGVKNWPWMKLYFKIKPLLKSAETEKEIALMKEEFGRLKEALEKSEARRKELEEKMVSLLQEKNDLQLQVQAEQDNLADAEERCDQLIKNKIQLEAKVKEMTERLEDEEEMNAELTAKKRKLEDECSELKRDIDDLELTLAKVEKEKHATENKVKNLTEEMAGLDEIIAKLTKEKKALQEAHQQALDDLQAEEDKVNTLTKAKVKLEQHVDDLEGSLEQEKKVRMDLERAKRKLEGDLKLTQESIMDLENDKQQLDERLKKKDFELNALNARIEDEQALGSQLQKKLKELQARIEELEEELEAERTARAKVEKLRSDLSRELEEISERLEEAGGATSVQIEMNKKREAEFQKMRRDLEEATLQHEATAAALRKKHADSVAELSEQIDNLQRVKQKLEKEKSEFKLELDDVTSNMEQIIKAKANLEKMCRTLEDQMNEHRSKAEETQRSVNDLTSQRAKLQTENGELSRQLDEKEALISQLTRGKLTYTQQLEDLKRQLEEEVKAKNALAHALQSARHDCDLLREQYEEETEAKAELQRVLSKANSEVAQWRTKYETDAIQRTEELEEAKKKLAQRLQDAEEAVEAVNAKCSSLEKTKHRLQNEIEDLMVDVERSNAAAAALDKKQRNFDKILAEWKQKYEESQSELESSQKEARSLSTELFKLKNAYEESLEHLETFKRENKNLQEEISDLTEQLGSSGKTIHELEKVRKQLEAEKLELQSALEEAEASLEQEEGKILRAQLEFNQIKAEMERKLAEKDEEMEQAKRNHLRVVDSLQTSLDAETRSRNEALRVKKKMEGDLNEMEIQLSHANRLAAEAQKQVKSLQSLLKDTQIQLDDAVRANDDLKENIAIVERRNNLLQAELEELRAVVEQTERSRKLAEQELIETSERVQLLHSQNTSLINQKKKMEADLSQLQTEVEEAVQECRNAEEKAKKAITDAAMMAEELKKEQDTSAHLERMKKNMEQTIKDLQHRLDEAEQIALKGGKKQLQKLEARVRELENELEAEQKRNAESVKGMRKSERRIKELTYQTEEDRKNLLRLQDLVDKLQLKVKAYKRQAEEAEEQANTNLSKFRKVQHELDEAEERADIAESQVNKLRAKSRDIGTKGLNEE
Sequence of bovine cardiac myosin (P85100 whole entry partner): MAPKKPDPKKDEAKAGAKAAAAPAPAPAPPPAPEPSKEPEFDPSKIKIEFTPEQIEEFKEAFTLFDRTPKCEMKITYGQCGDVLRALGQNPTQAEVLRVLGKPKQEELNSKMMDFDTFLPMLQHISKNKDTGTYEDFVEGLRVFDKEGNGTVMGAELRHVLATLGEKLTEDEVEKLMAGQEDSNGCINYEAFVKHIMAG
Sequence of bovine cardiac myosin (Q3SZE5 whole entry partner): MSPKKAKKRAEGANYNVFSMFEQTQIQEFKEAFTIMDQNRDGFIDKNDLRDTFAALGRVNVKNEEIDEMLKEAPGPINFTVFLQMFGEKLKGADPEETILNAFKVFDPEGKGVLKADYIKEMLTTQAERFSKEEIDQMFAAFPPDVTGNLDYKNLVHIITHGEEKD

For CC(F)(C1CCN(C(=O)Nc2ccnc(F)c2)CC1)S(=O)(=O)c1cccc(F)c1 (stereo not shown) [Compound 236, 4-(1-fluoro-1-((3-fluorophenyl)sulfonyl)ethyl)-N-(2-fluoropyridin-4-yl)piperidine-1-carboxamide], which “Myosin Activation (AC20)” value is on record?
Its value is “++ (++ represents myosin activation value AC20 from 2 μM-5 μM)”.

Which “Myosin Activation (AC20)” value does the source give for Cn1cc(S(=O)(=O)C(C)(C)C2CCN(C(=O)Nc3ccnnc3)CC2)cn1 [Compound 199, 4-(2-((1-methyl-1H-pyrazol-4-yl)sulfonyl)propan-2-yl)-N-(pyridazin-4-yl)piperidine-1-carboxamide] here?
Its value is “+ (+ represents myosin activation value AC20 > 5 μM)”.

With Cn1cncc1S(=O)(=O)C(C)(C)C1CCN(C(=O)Nc2ccnnc2)CC1 [Compound 148, 4-(2-((1-methyl-1H-imidazol-5-yl)sulfonyl)propan-2-yl)-N-(pyridazin-4-yl)piperidine-1-carboxamide] as the compound, how does the “Myosin Activation (AC20)” value read?
Its value is “+ (+ represents myosin activation value AC20 > 5 μM)”.

Which “Myosin Activation (AC20)” value does the source give for [2H]C([2H])([2H])n1cc(S(=O)(=O)[C@](F)(C2CCN(C(=O)Nc3ccon3)CC2)C([2H])([2H])[2H])c(C(F)F)n1 [Compound 305, (S)-4-(1-((3-(difluoromethyl)-1-(methyl-d3)-1H-pyrazol-4-yl)sulfonyl)-1-fluoroethyl-2,2,2-d3)-N-(isoxazol-3-yl)piperidine-1-carboxamide] here?
Its value is “+ (+ represents myosin activation value AC20 > 5 μM)”.

How did the “Myosin Activation (AC20)” value turn out when O=C(Nc1ccnnc1)N1CCC(C(F)(F)S(=O)(=O)c2ccc(N3CCC3)nc2)CC1 [Compound 67, 4-(((6-(azetidin-1-yl)pyridin-3-yl)sulfonyl)difluoromethyl)-N-(pyridazin-4-yl)piperidine-1-carboxamide] was run?
The value was “++ (++ represents myosin activation value AC20 from 2 μM-5 μM)”.

How did the “Myosin Activation (AC20)” value turn out when Cc1cc(S(=O)(=O)C(F)(F)C2CCN(C(=O)Nc3ccnnc3)CC2)n(C(C)C)n1 [Compound 87, 4-(difluoro((1-isopropyl-3-methyl-1H-pyrazol-5-yl)sulfonyl)methyl)-N-(pyridazin-4-yl)piperidine-1-carboxamide] was run?
Its value is “+ (+ represents myosin activation value AC20 > 5 μM)”.

For Cc1ccc(NC(=O)N2CCC(C(C)(C)S(=O)(=O)c3ccnn3C)CC2)cn1 [Compound 135, 4-(2-((1-methyl-1H-pyrazol-5-yl)sulfonyl)propan-2-yl)-N-(6-methylpyridin-3-yl)piperidine-1-carboxamide], which “Myosin Activation (AC20)” value is on record?
The value was “+ (+ represents myosin activation value AC20 > 5 μM)”.

Which “Myosin Activation (AC20)” value does the source give for Cn1nccc1S(=O)(=O)C(C)(F)C1CCN(C(=O)Nc2cnns2)CC1 (stereo not shown) [Compound 267, 4-(1-fluoro-1-((1-methyl-1H-pyrazol-5-yl)sulfonyl)ethyl)-N-(1,2,3-thiadiazol-5-yl)piperidine-1-carboxamide] here?
The value was “+++ (+++ represents myosin activation value AC20 < 2 μM)”.

With O=C(Nc1ccnnc1)N1CCC(C(F)(F)S(=O)(=O)c2cc(OC(F)(F)F)ccc2Cl)CC1 [Compound 74, 4-(((2-chloro-5-(trifluoromethoxy)phenyl)sulfonyl)difluoromethyl)-N-(pyridazin-4-yl)piperidine-1-carboxamide] as the compound, how does the “Myosin Activation (AC20)” value read?
Its value is “+++ (+++ represents myosin activation value AC20 < 2 μM)”.

With Cc1ccc(NC(=O)N2CCC(C(C)(C)S(=O)(=O)c3cccc(F)c3)CC2)cn1 [Compound 162, 4-(2-((3-fluorophenyl)sulfonyl)propan-2-yl)-N-(6-methylpyridin-3-yl)piperidine-1-carboxamide] as the compound, how does the “Myosin Activation (AC20)” value read?
Its value is “+ (+ represents myosin activation value AC20 > 5 μM)”.

Which “Myosin Activation (AC20)” value does the source give for CCn1nccc1S(=O)(=O)C(C)(C)C1CCN(C(=O)Nc2cnns2)CC1 [Compound 183, 4-(2-((1-ethyl-1H-pyrazol-5-yl)sulfonyl)propan-2-yl)-N-(1,2,3-thiadiazol-5-yl)piperidine-1-carboxamide] here?
Its value is “++ (++ represents myosin activation value AC20 from 2 μM-5 μM)”.

Which “Myosin Activation (AC20)” value does the source give for Cn1cc(S(=O)(=O)C(C)(C)C2CCN(C(=O)Nc3cn[nH]c3)CC2)c(C(F)(F)F)n1 [Compound 110, 4-(2-((1-methyl-3-(trifluoromethyl)-1H-pyrazol-4-yl)sulfonyl)propan-2-yl)-N-(1H-pyrazol-4-yl)piperidine-1-carboxamide] here?
The value was “++ (++ represents myosin activation value AC20 from 2 μM-5 μM)”.

How did the “Myosin Activation (AC20)” value turn out when CC(F)(C1CCN(C(=O)Nc2cccnc2)CC1)S(=O)(=O)c1cccc(F)c1 (stereo not shown) [Compound 224, 4-(1-fluoro-1-((3-fluorophenyl)sulfonyl)ethyl)-N-(pyridin-3-yl)piperidine-1-carboxamide] was run?
Its value is “++ (++ represents myosin activation value AC20 from 2 μM-5 μM)”.

CC(C)(C1CCN(C(=O)Nc2ccns2)CC1)S(=O)(=O)c1cccc(F)c1 [Compound 218, 4-(2-((3-fluorophenyl)sulfonyl)propan-2-yl)-N-(isothiazol-5-yl)piperidine-1-carboxamide] was tested. Which “Myosin Activation (AC20)” value did it give?
Its value is “++ (++ represents myosin activation value AC20 from 2 μM-5 μM)”.

How did the “Myosin Activation (AC20)” value turn out when CC(C)(C1CCN(C(=O)Nc2ccns2)CC1)S(=O)(=O)c1ccccc1C#N [Compound 201, 4-(2-((2-cyanophenyl)sulfonyl)propan-2-yl)-N-(isothiazol-5-yl)piperidine-1-carboxamide] was run?
Its value is “+ (+ represents myosin activation value AC20 > 5 μM)”.

N#Cc1ccc(S(=O)(=O)C(F)(F)C2CCN(C(=O)Nc3ccnnc3)CC2)c(Cl)c1 [Compound 76, 4-(((2-chloro-4-cyanophenyl)sulfonyl)difluoromethyl)-N-(pyridazin-4-yl)piperidine-1-carboxamide] was tested. Which “Myosin Activation (AC20)” value did it give?
The value was “++ (++ represents myosin activation value AC20 from 2 μM-5 μM)”.

For O=C(Nc1ccnnc1)N1CCC(C(F)(F)S(=O)(=O)c2ccccc2-n2cncn2)CC1 [Compound 86, 4-(((2-(1H-1,2,4-triazol-1-yl)phenyl)sulfonyl)difluoromethyl)-N-(pyridazin-4-yl)piperidine-1-carboxamide], which “Myosin Activation (AC20)” value is on record?
The value was “++ (++ represents myosin activation value AC20 from 2 μM-5 μM)”.

With COc1ccc(F)cc1S(=O)(=O)C(F)(F)C1CCN(C(=O)Nc2ccnnc2)CC1 [Compound 68, 4-(difluoro((5-fluoro-2-methoxyphenyl)sulfonyl)methyl)-N-(pyridazin-4-yl)piperidine-1-carboxamide] as the compound, how does the “Myosin Activation (AC20)” value read?
The value was “+ (+ represents myosin activation value AC20 > 5 μM)”.

For C[C@H](O)c1cc(NC(=O)N2CCC([C@@](C)(F)S(=O)(=O)c3cn(C)nc3C(F)F)CC2)ccn1 [Compound 29, 4-((S)-1-((3-(Difluoromethyl)-1-methyl-1H-pyrazol-4-yl)sulfonyl)-1-fluoroethyl)-N-(2-((S)-1-hydroxyethyl)pyridin-4-yl)piperidine-1-carboxamide], which “Myosin Activation (AC20)” value is on record?
Its value is “+ (+ represents myosin activation value AC20 > 5 μM)”.

CCn1nccc1S(=O)(=O)C(C)(C)C1CCN(C(=O)Nc2ccnnc2)CC1 [Compound 185, 4-(2-((1-ethyl-1H-pyrazol-5-yl)sulfonyl)propan-2-yl)-N-(pyridazin-4-yl)piperidine-1-carboxamide] was tested. Which “Myosin Activation (AC20)” value did it give?
Its value is “+ (+ represents myosin activation value AC20 > 5 μM)”.

Which “Myosin Activation (AC20)” value does the source give for Cc1ccc(NC(=O)N2CCC([C@](C)(F)S(=O)(=O)c3cn(C)nc3C(F)F)CC2)cn1 [Compound 260, (R)-4-(1-((3-(difluoromethyl)-1-methyl-1H-pyrazol-4-yl)sulfonyl)-1-fluoroethyl)-N-(6-methylpyridin-3-yl)piperidine-1-carboxamide] here?
Its value is “++ (++ represents myosin activation value AC20 from 2 μM-5 μM)”.

Cn1cc(S(=O)(=O)C(C)(F)C2CCN(C(=O)Nc3ccon3)CC2)c(C(F)(F)F)n1 (stereo not shown) [Compound 16, 4-(1-Fluoro-1-((1-methyl-3-(trifluoromethyl)-1H-pyrazol-4-yl)sulfonyl)ethyl)-N-(isoxazol-3-yl)piperidine-1-carboxamide] was tested. Which “Myosin Activation (AC20)” value did it give?
The value was “++ (++ represents myosin activation value AC20 from 2 μM-5 μM)”.

For CC(C)(C1CCN(C(=O)Nc2ccnc(Cl)c2)CC1)S(=O)(=O)c1cccc(F)c1 [Compound 160, N-(2-chloropyridin-4-yl)-4-(2-((3-fluorophenyl)sulfonyl)propan-2-yl)piperidine-1-carboxamide], which “Myosin Activation (AC20)” value is on record?
The value was “++ (++ represents myosin activation value AC20 from 2 μM-5 μM)”.

How did the “Myosin Activation (AC20)” value turn out when Cn1nccc1S(=O)(=O)C(C)(F)C1CCN(C(=O)Nc2cccnc2)CC1 (stereo not shown) [Compound 227, 4-(1-fluoro-1-((1-methyl-1H-pyrazol-5-yl)sulfonyl)ethyl)-N-(pyridin-3-yl)piperidine-1-carboxamide] was run?
The value was “+ (+ represents myosin activation value AC20 > 5 μM)”.

Which “Myosin Activation (AC20)” value does the source give for Cc1cnccc1S(=O)(=O)C(F)(F)C1CCN(C(=O)Nc2ccnnc2)CC1 [Compound 70, 4-(difluoro((3-methylpyridin-4-yl)sulfonyl)methyl)-N-(pyridazin-4-yl)piperidine-1-carboxamide] here?
The value was “++ (++ represents myosin activation value AC20 from 2 μM-5 μM)”.

Which “Myosin Activation (AC20)” value does the source give for CC(C)(C1CCN(C(=O)Nc2ccnnc2)CC1)S(=O)(=O)c1ccccc1Cl [Compound 197, 4-(2-((2-chlorophenyl)sulfonyl)propan-2-yl)-N-(pyridazin-4-yl)piperidine-1-carboxamide] here?
Its value is “+++ (+++ represents myosin activation value AC20 < 2 μM)”.

CC(C)(C1CCN(C(=O)Nc2ccc(F)nc2)CC1)S(=O)(=O)c1ccc(C(F)(F)F)nc1 [Compound 104, N-(6-fluoropyridin-3-yl)-4-(2-((6-(trifluoromethyl)pyridin-3-yl)sulfonyl)propan-2-yl)piperidine-1-carboxamide] was tested. Which “Myosin Activation (AC20)” value did it give?
Its value is “+ (+ represents myosin activation value AC20 > 5 μM)”.

For C[C@@H](O)c1cc(NC(=O)N2CCC([C@@](C)(F)S(=O)(=O)c3cn(C)nc3C(F)F)CC2)ccn1 [Compound 304, 4-((S)-1-((3-(difluoromethyl)-1-methyl-1H-pyrazol-4-yl)sulfonyl)-1-fluoroethyl)-N-(2-((R)-1-hydroxyethyl)pyridin-4-yl)piperidine-1-carboxamide], which “Myosin Activation (AC20)” value is on record?
Its value is “+ (+ represents myosin activation value AC20 > 5 μM)”.
